molecular target: T1, full-length SHP2 (His6-tagged SHP2(2-527)) (Homo sapiens, UniProt Q06124); test: SHP2 Enzymatic Assay (fluorescence intensity kinetic assay, DiFMUP hydrolysis); format: biochemical; details: not given
T1 construct: His6-tagged SHP2(2-527); His6; made in house; host or cells: E. coli
Method: A fluorescence intensity kinetic assay was configured for full-length SHP2 that monitors the amount of 6,8-difluoro-7-hydroxy-4-methylcoumarin (“DiFMU”) formed upon hydrolysis of 6,8-difluoro-4-methylumbelliferyl phosphate (“DiFMUP”) by SHP2. Assay mixtures consisted of 25 mM K^+HEPES, pH 7.4, 0.01% Triton X-100, 1 mM DTT, 50 mM KCl, 100 μg/mL bovine γ-globulin, 50 μM DiFMUP, 1 μM SHP2 activating peptide (LN(pY)IDLDLV(dPEG8)LST(pY)ASINFQK-amide), 1 nM full-length SHP2 (His6-tagged SHP2(2-527), recombinantly expressed in E. coli and purified in-house) and 2% dimethylsulfoxide (“DMSO”) (from compound). […] The assay was run in 384-well, polystyrene, low-volume, non-treated, black microtiter plates (Costar 4511) in a final volume of 20 μL. Low control wells lacked enzyme. The assays were initiated by the addition of a mixture of SHP2 and the activating peptide, and following a 15 second mix on an orbital shaker, were read in kinetic mode for 15 minutes (30 seconds/cycle) at ambient temperature on a PerkinElmer EnVision microplate reader (λEx=355 nm, λEm=460 nm). Initial velocities (slopes of the tangents at t=0) were estimated from exponential fits to the slightly nonlinear progress curves and then were converted to percent of control (“POC”) using the following equation:
[formula] • Where: Xmax Average Uninhibited Controls • Xmin Average Background A 4-parameter logistic model was the fit to the POC data for each compound. From that fit, the IC50 was estimated and is defined as the concentration of compound at which the curve crosses 50 POC.
The reported IC50 in Table 1 may be from a single assay or the mean of multiple assays.

T1 sequence (Q06124 2-527): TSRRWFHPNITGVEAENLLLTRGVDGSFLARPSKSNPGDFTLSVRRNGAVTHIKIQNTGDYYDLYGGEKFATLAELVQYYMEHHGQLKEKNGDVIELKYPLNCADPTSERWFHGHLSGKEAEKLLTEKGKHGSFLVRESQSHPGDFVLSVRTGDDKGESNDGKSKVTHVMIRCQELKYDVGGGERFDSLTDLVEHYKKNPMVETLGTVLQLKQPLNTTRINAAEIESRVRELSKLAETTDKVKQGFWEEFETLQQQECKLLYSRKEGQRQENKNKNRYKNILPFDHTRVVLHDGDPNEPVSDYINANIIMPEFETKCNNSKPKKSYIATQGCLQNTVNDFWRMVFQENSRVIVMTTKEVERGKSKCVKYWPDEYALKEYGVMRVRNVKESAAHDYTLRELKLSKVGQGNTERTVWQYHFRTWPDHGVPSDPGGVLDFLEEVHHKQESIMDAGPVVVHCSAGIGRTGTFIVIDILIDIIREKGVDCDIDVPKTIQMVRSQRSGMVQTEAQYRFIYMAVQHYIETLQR

Q: How did the IC50 turn out when `C[C@@]1(N)CCCN(c2cnc3nc(Sc4ccnc(N)c4Cl)ccc3n2)CC1` (single isomer, unassigned) [Example 74] was run?
A: Its IC50 is 42 nM.

Q: Which IC50 does the source give for `C[C@]1(N)CCCN(c2cnc3nc(Sc4ccnc(N)c4Cl)ccc3n2)CC1` (single isomer, unassigned) [Example 75] here?
A: The IC50 was 30 nM.

Q: With `N#Cc1ccc2c(c1)[C@@H](N)C1(CCN(c3cnc4nc(Sc5ccnc(N)c5Cl)ccc4n3)CC1)C2` (single isomer, unassigned) [Example 112] as the compound, how does the IC50 read?
A: Its IC50 is 33 nM.

Q: With `COc1ccc2c(n1)CC1(CCN(c3cnc4nc(Sc5ccnc(N)c5Cl)ccc4n3)CC1)[C@H]2N` (single isomer, unassigned) [Example 116] as the compound, how does the IC50 read?
A: The IC50 was 36 nM.

Q: For `Nc1nccc(Sc2ccc3nc(N4CCC5(CC4)Cc4ncc(F)cc4[C@@H]5N)cnc3n2)c1Cl` (single isomer, unassigned) [Example 118], which IC50 is on record?
A: The IC50 was 45 nM.

Q: How did the IC50 turn out when `CNc1nccc(Sc2ccc3nc(N4CCC[C@@](C)(N)CC4)cnc3n2)c1Cl` (single isomer, unassigned) [Example 148] was run?
A: The IC50 was 93 nM.

Q: How did the IC50 turn out when `CNc1nccc(Sc2ccc3nc(N4CCC[C@](C)(N)CC4)cnc3n2)c1Cl` (single isomer, unassigned) [Example 149] was run?
A: The IC50 was 98 nM.

Q: `Cc1nccc(Sc2ccc3nc(N4CCC[C@@](C)(N)CC4)cnc3n2)c1Cl` (single isomer, unassigned) [Example 150] was tested. Which IC50 did it give?
A: Its IC50 is 50 nM.

Q: With `Cc1nccc(Sc2ccc3nc(N4CCC[C@](C)(N)CC4)cnc3n2)c1Cl` (single isomer, unassigned) [Example 151] as the compound, how does the IC50 read?
A: The IC50 was 76 nM.

Q: For `CC1(N)CCN(c2cnc3nc(-c4cccc(Cl)c4)ccc3n2)CC1` [Example 3, 1-(6-(3-chlorophenyl)pyrido[2,3-b]pyrazin-2-yl)-4-methylpiperidin-4-amine], which IC50 is on record?
A: Its IC50 is 1800 nM.

Q: For `C[C@@H]1OCC2(CCN(c3ccc4nc(Sc5cccc(Cl)c5Cl)cnc4n3)CC2)[C@@H]1N` [Example 5, (3S,4S)-8-(2-((2,3-dichlorophenyl)thio)pyrido[2,3-b]pyrazin-6-yl)-3-methyl-2-oxa-8-azaspiro[4,5]decan-4-amine], which IC50 is on record?
A: The IC50 was 4000 nM.

Q: How did the IC50 turn out when `CC1(N)CCN(c2cnc3nc(Sc4cccc(Cl)c4Cl)ccc3n2)CC1` [Example 6, 1-(6-((2,3-dichlorophenyl)thio)pyrido[2,3-b]pyrazin-2-yl)-4-methylpiperidin-4-amine] was run?
A: Its IC50 is 58 nM.

Q: How did the IC50 turn out when `CC1(N)CCN(c2ccc3nc(Sc4cccc(Cl)c4Cl)cnc3n2)CC1` [Example 7, 1-(2-((2,3-dichlorophenyl)thio)pyrido[2,3-b]pyrazin-6-yl)-4-methylpiperidin-4-amine] was run?
A: The IC50 was 9500 nM.

Q: How did the IC50 turn out when `N[C@@H]1CCCC12CCN(c1cnc3nc(Sc4cccc(Cl)c4Cl)ccc3n1)CC2` [Example 8, (R)-8-(6-((2,3-dichlorophenyl)thio)pyrido[2,3-b]pyrazin-2-yl)-8-azaspiro[4.5]decan-1-amine] was run?
A: Its IC50 is 59 nM.

Q: With `NC1(CO)CCN(c2cnc3nc(Sc4cccc(Cl)c4Cl)ccc3n2)CC1` [Example 9, (4-amino-1-(6-((2,3-dichlorophenyl)thio)pyrido[2,3-b]pyrazin-2-yl)piperidin-4-yl)methanol] as the compound, how does the IC50 read?
A: Its IC50 is 62 nM.

Q: With `CC1(N)CCN(c2cnc3nc(Cc4cccc(Cl)c4Cl)ccc3n2)CC1` [Example 10, 1-(6-(2,3-dichlorobenzyl)pyrido[2,3-b]pyrazin-2-yl)-4-methylpiperidin-4-amine] as the compound, how does the IC50 read?
A: The IC50 was 2000 nM.

Q: With `CC1(N)CCN(c2cnc3nc(-c4cccc(Cl)c4C(F)(F)F)ccc3n2)CC1` [Example 11, 1-(6-(3-chloro-2-(trifluoromethyl)phenyl)pyrido[2,3-b]pyrazin-2-yl)-4-methylpiperidin-4-amine] as the compound, how does the IC50 read?
A: The IC50 was 2300 nM.

Q: For `COc1cccc(Sc2ccc3nc(N4CCC(C)(N)CC4)cnc3n2)c1Cl` [Example 14, 1-(6-((2-chloro-3-methoxyphenyl)thio)pyrido[2,3-b]pyrazin-2-yl)-4-methylpiperidin-4-amine], which IC50 is on record?
A: The IC50 was 100 nM.

Q: For `CC1(N)CCN(c2cnc3nc(-c4cccc(Cl)c4F)ccc3n2)CC1` [Example 16, 1-(6-(3-chloro-2-fluorophenyl)pyrido[2,3-b]pyrazin-2-yl)-4-methylpiperidin-4-amine], which IC50 is on record?
A: The IC50 was 290 nM.

Q: `CC1(N)CCN(c2cnc3nc(Nc4cccc(Cl)c4Cl)ccc3n2)CC1` [Example 17, 2-(4-amino-4-methylpiperidin-1-yl)-N-(2,3-dichlorophenyl)pyrido[2,3-b]pyrazin-6-amine] was tested. Which IC50 did it give?
A: The IC50 was 870 nM.

Q: How did the IC50 turn out when `CN(C)C1(C)CCN(c2cnc3nc(-c4cccc(Cl)c4Cl)ccc3n2)CC1` [Example 18, 1-(6-(2,3-dichlorophenyl)pyrido[2,3-b]pyrazin-2-yl)-N,N,4-trimethylpiperidin-4-amine] was run?
A: The IC50 was 570 nM.

Q: With `CC1(N)CCN(c2cnc3nc(-c4ccnc(N5CCCC5)c4Cl)ccc3n2)CC1` [Example 19, 1-(6-(3-chloro-2-(pyrrolidin-1-yl)pyridin-4-yl)pyrido[2,3-b]pyrazin-2-yl)-4-methylpiperidin-4-amine] as the compound, how does the IC50 read?
A: The IC50 was 1700 nM.

Q: How did the IC50 turn out when `COc1nccc(Sc2ccc3nc(N4CCC(C)(N)CC4)cnc3n2)c1Cl` [Example 20, 1-(6-((3-chloro-2-methoxypyridin-4-yl)thio)pyrido[2,3-b]pyrazin-2-yl)-4-methylpiperidin-4-amine] was run?
A: Its IC50 is 360 nM.

Q: Which IC50 does the source give for `COc1nccc(-c2ccc3nc(N4CCC5(CC4)CO[C@@H](C)[C@H]5N)cnc3n2)c1Cl` [Example 21, (3S,4S)-8-(6-(3-chloro-2-methoxypyridin-4-yl)pyrido[2,3-b]pyrazin-2-yl)-3-methyl-2-oxa-8-azaspiro[4.5]decan-4-amine] here?
A: The IC50 was 5700 nM.

Q: How did the IC50 turn out when `CC1(CN)CCN(c2cnc3cc(-c4cccc(Cl)c4Cl)ccc3n2)CC1` [Example 23, (1-(6-(2,3-dichlorophenyl)quinoxalin-2-yl)-4-methylpiperidin-4-yl)methanamine] was run?
A: Its IC50 is 2500 nM.

Q: Which IC50 does the source give for `C[C@@]1(N)CCN(c2cnc3nc(Sc4ccnc(N)c4Cl)ccc3n2)C1` [Example 24, (R)-4-((2-(3-amino-3-methylpyrrolidin-1-yl)pyrido[2,3-b]pyrazin-6-yl)thio)-3-chloropyridin-2-amine] here?
A: Its IC50 is 200 nM.

Q: How did the IC50 turn out when `COc1ccc(F)c(-c2ccc3nc(N4CCC(C)(N)CC4)cnc3n2)c1Cl` [Example 26, 1-(6-(2-chloro-6-fluoro-3-methoxyphenyl)pyrido[2,3-b]pyrazin-2-yl)-4-methylpiperidin-4-amine] was run?
A: The IC50 was 920 nM.

Q: Which IC50 does the source give for `CC1(CN)CCN(c2cnc3nc(-c4cccc(Cl)c4Cl)ccc3n2)CC1` [Example 27, (1-(6-(2,3-dichlorophenyl)pyrido[2,3-b]pyrazin-2-yl)-4-methylpiperidin-4-yl)methanamine] here?
A: Its IC50 is 500 nM.

same assay, conditions: full-length SHP2 with 1 μM activating peptide, 50 μM DiFMUP; single assay or mean of multiple assays; read-out: Biological Example 1 IC50

Q: `CC1(N)CCN(c2cnc3nc(-c4cccc(Cl)c4Cl)ccc3n2)CC1` [Example 2, 1-(6-(2,3-dichlorophenyl)pyrido[2,3-b]pyrazin-2-yl)-4-methylpiperidin-4-amine] was tested. Which IC50 did it give?
A: The IC50 was 93 nM.

Q: For `CC1(CN)CCN(c2cnc3nc(Sc4ccnc(N)c4Cl)ccc3n2)CC1` [Example 12, 4-((2-(4-(aminomethyl)-4-methylpiperidin-1-yl)pyrido[2,3-b]pyrazin-6-yl)thio)-3-chloropyridin-2-amine], which IC50 is on record?
A: Its IC50 is 61 nM.

Q: How did the IC50 turn out when `CC1(N)CCN(c2cnc3nc(Oc4cccc(Cl)c4Cl)ccc3n2)CC1` [Example 15, 1-(6-(2,3-dichlorophenoxy)pyrido[2,3-b]pyrazin-2-yl)-4-methylpiperidin-4-amine] was run?
A: The IC50 was 340 nM.

Q: For `CC1(N)CCN(c2cnc3cc(-c4cccc(Cl)c4Cl)ccc3n2)CC1` [Example 22, 1-(6-(2,3-dichlorophenyl)quinoxalin-2-yl)-4-methylpiperidin-4-amine], which IC50 is on record?
A: Its IC50 is 700 nM.

From patent US12187721B2, “Protein tyrosine phosphatase inhibitors” (Array BioPharma Inc., priority 2018, dated 2025)
